# Data reported in patent US9085593B2, “Therapeutic agent for arthrosis” (SANSHO CO., LTD., priority 2011, dated 2015).
# “And” between values parts separate entries of the source, which are not always exact repeats. Equal entries are not always repeated.
# System: osteoarthritis in rabbit knee
# Test: Pain assessment (weight distribution across both hind limbs), rabbit knee osteoarthritis model
# Type: in vivo, rabbits (Kbs:NZW)
# Conditions: for Weight distribution, Mean / Left hind limb / Right hind limb / Weight distribution (%) on treated limb (right hind limb): 10 μg/rabbit into joint cavity; for Weight distribution, Mean: group mean n=6; for Left hind limb / Right hind limb / Weight distribution (%) on treated limb (right hind limb): individual animals 201-206, listed as Test substance, sodium salt
# Procedure: Twelve 11- to 12-week-old male rabbits (Kbs:NZW) were used. Rabbits were reared in separate cages (one rabbit per cage) at 14.4° C. to 24.9° C. under light (12 hours from 7:00 am to 7:00 pm) with continuous ventilation. Rabbits were allowed to eat 150 g of feed (CR-3, CLEA Japan, Inc.) per day and to drink tap water.
# (9Z)-9-Octadecenoic acid-(2-hydroxy-2-oxide-1,2-oxaphospholan-4-yl)methyl ester sodium salt (C18:1-cPA; hereafter, referred to as “ScPA”) was used.
# Hair in the vicinity of the knee joint of the right hind limb of a rabbit was shaved using electrical clippers under deep anesthesia, and the shaved area was disinfected with Isodine. The outer coat on the medial aspect of the right hind limb was incised with a surgical knife, the boundary between the medial aspect and the articular capsule of the patellofemoral ligament was further incised, and the medial patellofemoral ligament was then dissected. Thereafter, the articular capsule was spread wide open to expose the medial meniscus, which was then completely removed. Following the removal of the meniscus, tissue and epidermis in the vicinity of the articular capsule were sutured. At the time of suturing, the site of operation was washed with physiological saline (titer: 500 mg/20 ml) containing antibiotics (Viccillin, Meiji Seika Pharma Co., Ltd.).
# After the model animals were prepared, they were divided into two groups each consisting of 6 individuals while averaging body […] (i.e., the vehicle administered group of Animal Numbers 101 to 106 and the test substance (ScPA) administered group of Animal Numbers 201 to 206).
# The test compound and the vehicle were administered in the manner described below. • Route of administration: into the joint cavity • Site of administration: right hind limb (treated limb) • Timing of administration: on days 7, 11, 14, 18, 21, 25, 28, 32, 35, and 39 • Dosage: Test compound: 10 μg/rabbit (volume: 0.2 ml) • Vehicle: 0.2 ml/rabbit • Means of administration: with the use of a 1.0-ml syringe (Terumo Corporation) and a 27 G injection needle (Terumo Corporation) (1-5) Pain Assessment (Weight Distribution Across both Hind Limbs) Frequency of Measurement:
# Measurement was carried out seven times in total: i.e., before treatment and 1, 2, 3, 4, 5, and 6 weeks after the treatment.
# Body weights loaded on the right hind limb and the left hind limb were separately measured using a weight scale, and the weight distribution on the treated limb (the right hind limb) was determined using the following equation. Weight distribution (%) on treated limb (right hind limb)=[right hind limb (kg)/(right hind limb (kg)+left hind limb (kg))]×100 (1-6) Swelling Assessment (Articular Swelling of both Hind Limbs) Frequency of Measurement: […]
compound,measurement,setting,value
"CCCCCCCC/C=C\CCCCCCCC(=O)OCC1COP(=O)([O-])C1.[Na+] (centres unmarked) [ScPA, (9Z)-9-Octadecenoic acid-(2-hydroxy-2-oxide-1,2-oxaphospholan-4-yl)methyl ester sodium salt]","Weight distribution, Mean",Day 0 (before treatment),49.1%
same,Left hind limb,Day 0 (before treatment),610 g and 400 g and 550 g and 460 g and 260 g and 310 g
same,Right hind limb,Day 0 (before treatment),660 g and 320 g and 410 g and 490 g and 270 g and 350 g
same,Weight distribution (%) on treated limb (right hind limb),Day 0 (before treatment),52% (2×) and 44% and 43% and 51% and 53%
same,"Weight distribution, Mean",Day 7,32.1%
same,Left hind limb,Day 7,1010 g and 410 g and 900 g and 750 g (2×) and 880 g
same,Right hind limb,Day 7,660 g and 160 g and 140 g and 520 g and 430 g and 460 g
same,Weight distribution (%) on treated limb (right hind limb),Day 7,40% and 28% and 13% and 41% and 33% and 38%
same,"Weight distribution, Mean",Day 14,39.4%
same,Left hind limb,Day 14,770 g and 400 g and 640 g and 810 g and 700 g and 600 g
same,Right hind limb,Day 14,520 g and 200 g and 320 g and 630 g and 380 g and 610 g
same,Weight distribution (%) on treated limb (right hind limb),Day 14,40% and 33% (2×) and 44% and 35% and 50%
same,"Weight distribution, Mean",Day 21,43.0%
same,Left hind limb,Day 21,710 g and 440 g and 350 g and 580 g (2×) and 760 g
same,Right hind limb,Day 21,380 g and 370 g and 720 g and 250 g and 450 g and 440 g
same,Weight distribution (%) on treated limb (right hind limb),Day 21,35% and 46% and 67% and 30% and 37% and 43%
same,"Weight distribution, Mean",Day 28,47.0%
same,Left hind limb,Day 28,700 g and 290 g and 260 g and 750 g and 710 g and 800 g
same,Right hind limb,Day 28,600 g (2×) and 150 g and 390 g and 660 g and 780 g
same,Weight distribution (%) on treated limb (right hind limb),Day 28,46% (2×) and 34% and 60% and 47% and 49%
same,"Weight distribution, Mean",Day 35,39.1%
same,Left hind limb,Day 35,650 g and 800 g and 470 g and 1030 g and 570 g and 870 g
same,Right hind limb,Day 35,350 g (2×) and 380 g and 630 g and 560 g and 510 g
same,Weight distribution (%) on treated limb (right hind limb),Day 35,35% and 30% and 45% and 38% and 50% and 37%
same,"Weight distribution, Mean","Day 42, p=0.0053 vs vehicle",46.7%
same,Left hind limb,Day 42,620 g and 700 g and 380 g and 820 g and 840 g and 580 g
same,Right hind limb,Day 42,440 g and 510 g and 630 g and 660 g and 520 g and 610 g
same,Weight distribution (%) on treated limb (right hind limb),Day 42,42% (2×) and 62% and 45% and 38% and 51%
same,weight loaded on the treated limb (the right hind limb) compared with the vehicle administered group,after day 14 up to day 42,maintained at higher levels
